From US10344330B2, “Glatiramer acetate response biomarker mRNA potency assay” (Mylan Inc., priority 2013, dated 2019)

Columns and labels:
[1] = tested on: mouse IL-2 mRNA in primary LN cells; experiment: Mouse IL-2 mRNA in LN cells of Copaxone-, GMA- or mannitol-immunized SJL/J mice stimulated with Copaxone and GMA lots, normalized to Actβ or GAPDH (Example V); format: cell-based
Procedure: A real-time polymerase chain reaction method was used to measure the expression of cytokine mRNA in GA-stimulated LN cells from GA-immunized SJL/J mice. Normalization of expression with two different housekeeping genes, GAPDH and β-actin, was tested.
Each group consisted of six female SJL/J mice immunized by injection in all four footpads with a total dose of 250 μg of one lot of GA, or mannitol and no GA. Three Copaxone batches and three GMA batches were used to immunize the mice. CFA was included in both GA and mannitol immunizations. Ten days following immunization, LN cell samples isolated from the immunized mice were each stimulated with a concentration of a Copaxone lot and a GMA lot. A positive control of 2.5 μg/mL ConA treated LN cells and a negative control of 10 μg/mL MBP treated cells were included in each group.
Therefore, the Q-PCR analysis was repeated on the samples, measuring levels of IL-2, IL-4, IL-5, and IL-13, using both GAPDH and β-actin as reference gene.

TNF-α mRNA in LN cells = experiment: TNF-α mRNA by real-time PCR in LN cells of GA-immunized CD-1, BALB/cByJ, SJL/J mice (Example III); format: cell-based, mouse; details: 6 hours
Procedure: On Day 0, mice were immunized with 250 μg GA (GMA, Mylan Pharmaceuticals, Inc.) and CFA. The GA solution (20 mg/mL) was diluted with Dulbecco's Phosphate-Buffered Saline to 5 mg/mL. The dosing formulation consisted of equal volumes of the diluted GA solution (5 mg/mL) and CFA solution, mixed until well-emulsified. Animals were weighed and allocated to groups. Animals were dosed by injection into four footpads. The injection volume per animal was 0.1 mL (about 10 μL into each front footpad, and 40 μL into each hind footpad).
Immunized animals were euthanized by cervical dislocation on Day 10 post-immunization. Lymph node cells were isolated from animals and treated with Myelin Basic Protein (MBP, a negative control), Concanavalin A (ConA, a positive control) or GA as shown in Table 16. Lymph nodes in the axillary and popliteal regions were removed aseptically in a purifier clean bench. […] The LN were then washed 3 times with −5 mL of RPMI medium, and isolated by pressing the LN with a syringe plunger. […] The cell suspension was centrifuged at about 200×g for 10 minutes at about 4° C. and re-suspended in ice cold enriched DCCM-1 medium. Cells were seeded in 96-well tissue culture plates.
LN cells isolated from GA-immunized animals were stimulated with GA (GMA, Mylan Pharmaceuticals, Inc.) at concentrations as indicated in Tables 16 and 17. A positive control was prepared by treating LN cells with 2.5 μg/mL concavalin A (ConA, a non-specific T cell stimulant). Myelin basic protein (MBP, 10 μg/mL) and enriched DCCM-1 medium served as negative controls. The cells from all groups each were stimulated with the same GA lot. Each reaction was set up in triplicate.
After incubation at about 37° C. in a humidified CO2 incubator for 6 hours, the cells were lysed for total RNA isolation. Total RNA was isolated from treated LN cells using SV 96 Total RNA Isolation System according to the manufacturer's protocol (Promega, Cat. #Z3500). Cells were washed once with Phosphate Buffered Saline (PBS) and lysed in RNA lysis buffer. The lysate was transferred to wells of the SV 96 binding plate. Samples were washed with RNA wash solution and treated with DNase. Total RNA was eluted with nuclease-free water from the binding plate.
After the reverse transcriptase reaction was completed, cDNA samples were used directly for real-time PCR to measure the response biomarker mRNA levels produced by the stimulated cells. […] All probes for target genes contained FAM dye, and probes for the internal control contained VIC®/MGB dye. Samples will be prepared and run in 96-well plates using a Real-Time PCR system (7500, Life Technologies). This system allows direct detection of PCR-product formation by measuring the increase in fluorescent emission continuously during the PCR reaction. A relative quantitation method was used to analyze changes in mouse IL-2, IL-4, IL-5, IL-10, IL-13, IFN-γ and TNF-α expression in GA-treated samples relative to the untreated control (enriched DCCM-1 treated) samples. The Real-Time PCR program was:
The levels of mouse cytokine amplicons (IL-2, IL-4, IL-5, IL-10, IL-13, mIFN-γ and TNF-α) were normalized to internal probe levels (GAPDH) from the same samples. The following equations were used to calculate the relative increase in response to GA stimulation compared to the control sample: ΔCT=CT_target−CT_reference ΔΔCT=−ΔCT_Treated−CT_VC

[2] = Group 1C: CD-1, GA-immunized, stimulation 10 μg/mL
[3] = Group 2C: BALB/cByJ, GA-immunized, stimulation 10 μg/mL
[4] = Group 3C: SJL/J, GA-immunized, stimulation 10 μg/mL

L-glutamic acid polymer with L-alanine, L-lysine and L-tyrosine, acetate (salt) [GA]
IL-2 cross-potency ([1]; Copaxone: C/A, GMA: B/D, 5 μg/mL): 108% | TNF-α mRNA Expression (TNF-α mRNA in LN cells; Group 1C: CD-1, GA-immunized, stimulation 0.3 μg/mL): 1.0 fold change vs control | TNF-α mRNA Expression (TNF-α mRNA in LN cells; Group 1C: CD-1, GA-immunized, stimulation 1 μg/mL): 1.1 fold change vs control | TNF-α mRNA Expression (TNF-α mRNA in LN cells; Group 1C: CD-1, GA-immunized, stimulation 3 μg/mL): 1.4 fold change vs control | TNF-α mRNA Expression (TNF-α mRNA in LN cells; [2]): 1.1 fold change vs control | TNF-α mRNA Expression (TNF-α mRNA in LN cells; Group 2C: BALB/cByJ, GA-immunized, stimulation 0.3 μg/mL): 0.1 fold change vs control | TNF-α mRNA Expression (TNF-α mRNA in LN cells; Group 2C: BALB/cByJ, GA-immunized, stimulation 1 μg/mL): 1.0 fold change vs control | TNF-α mRNA Expression (TNF-α mRNA in LN cells; Group 2C: BALB/cByJ, GA-immunized, stimulation 3 μg/mL): 0.8 fold change vs control | TNF-α mRNA Expression (TNF-α mRNA in LN cells; [3]): 0.5 fold change vs control | TNF-α mRNA Expression (TNF-α mRNA in LN cells; Group 3C: SJL/J, GA-immunized, stimulation 0.3 μg/mL): 0.8 fold change vs control | TNF-α mRNA Expression (TNF-α mRNA in LN cells; Group 3C: SJL/J, GA-immunized, stimulation 1 μg/mL): 0.9 fold change vs control | TNF-α mRNA Expression (TNF-α mRNA in LN cells; Group 3C: SJL/J, GA-immunized, stimulation 3 μg/mL): 0.9 fold change vs control | TNF-α mRNA Expression (TNF-α mRNA in LN cells; [4]): 0.8 fold change vs control

Concanavalin A [ConA, reference compound]
IL-2 mRNA Fold Change ([1]; Group 3 (mice immunized with GA-M2 Mylan GMA), 2.5 μg/mL, normalized to Actβ): 123.4 fold | IL-2 mRNA Fold Change ([1]; Group 3 (mice immunized with GA-M2 Mylan GMA), 2.5 μg/mL, normalized to GAPDH): 149.4 fold | IL-2 mRNA Fold Change ([1]; Group 4 (mice immunized with GA-C2 Copaxone), 2.5 μg/mL, normalized to Actβ): 105.0 fold | IL-2 mRNA Fold Change ([1]; Group 4 (mice immunized with GA-C2 Copaxone), 2.5 μg/mL, normalized to GAPDH): 84.8 fold | TNF-α mRNA Expression (TNF-α mRNA in LN cells; Group 1C: CD-1, GA-immunized, stimulation 2.5 μg/mL): 0.6 fold change vs control | TNF-α mRNA Expression (TNF-α mRNA in LN cells; Group 2C: BALB/cByJ, GA-immunized, stimulation 2.5 μg/mL): 0.8 fold change vs control | TNF-α mRNA Expression (TNF-α mRNA in LN cells; Group 3C: SJL/J, GA-immunized, stimulation 2.5 μg/mL): 0.7 fold change vs control

B1: MBP: myelin basic protein, a negative control (protein, UniProt P02686 1-304, looked up)
Myelin basic protein: MGNHAGKRELNAEKASTNSETNRGESEKKRNLGELSRTTSEDNEVFGEADANQNNGTSSQDTAVTDSKRTADPKNAWQDAHPADPGSRPHLIRLFSRDAPGREDNTFKDRPSESDELQTIQEDSAATSESLDVMASQKRPSQRHGSKYLATASTMDHARHGFLPRHRDTGILDSIGRFFGGDRGAPKRGSGKDSHHPARTAHYGSLPQKSHGRTQDENPVVHFFKNIVTPRTPPPSQGKGRGLSLSRFSWGAEGQRPGFGYGGRASDYKSAHKGFKGVDAQGTLSKIFKLGGRDSRSGSPMARR
IL-2 mRNA Fold Change ([1]; Group 3 (mice immunized with GA-M2 Mylan GMA), 10 μg/mL, normalized to Actβ): 1.2 fold | IL-2 mRNA Fold Change ([1]; Group 3 (mice immunized with GA-M2 Mylan GMA), 10 μg/mL, normalized to GAPDH): 0.7 fold | IL-2 mRNA Fold Change ([1]; Group 4 (mice immunized with GA-C2 Copaxone), 10 μg/mL, normalized to Actβ): 0.8 fold | IL-2 mRNA Fold Change ([1]; Group 4 (mice immunized with GA-C2 Copaxone), 10 μg/mL, normalized to GAPDH): 1.3 fold | TNF-α mRNA Expression (TNF-α mRNA in LN cells; [2]): 0.8 fold change vs control | TNF-α mRNA Expression (TNF-α mRNA in LN cells; [3]): 0.8 fold change vs control | TNF-α mRNA Expression (TNF-α mRNA in LN cells; [4]): 0.3 fold change vs control
